{"source": "paper PMC8387043", "about": "“Host Poly(A) Polymerases PAPD5 and PAPD7 Provide Two Layers of Protection That Ensure the Integrity and Stability of Hepatitis B Virus RNA” (Journal of Virology, 2021)", "key": {"HBV [1]": {"system": "HBV", "assay": "Antiviral assay in HBV-infected HepG2-NTCP cells", "type": "cell-based", "conditions": "Hepatitis B virus"}, "HBV [2]": {"system": "HBV", "assay": "HBsAg inhibition in PLC/PRF/5 cells", "type": "cell-based", "conditions": "Hepatitis B virus", "protocol": "AB-452 and RG7834 both belong to the dihydroquinolizinones chemical class. The antiviral activities of AB-452 and its diastereomer ARB-169451 were evaluated using multiple in vitro HBV replication models, including HepG2.2.15 cells (which constitutively express HBV through the integrated viral genome), PLC/PRF/5 cells (a patient-derived hepatocellular carcinoma cell line only expressing HBsAg), and HBV-infected HepG2-NTCP cells or primary human hepatocytes (PHHs) in which viral replication was dependent on cccDNA transcription (Table 1).\nHepG2.2.15, HepAD38, and PLC/PRF/5 cells were cultured in Dulbecco’s modified Eagle medium (DMEM)/F12 medium (Corning, NY, USA), supplemented with 10% fetal bovine serum (Gemini, CA, USA), 100 U/ml penicillin, and 100 μg/ml streptomycin. Huh-7 cells (Creative Bioarray, NY, USA) were cultured in RPMI 1640 medium (Basel, Switzerland) containing 10% fetal bovine serum, 100 U/ml penicillin, and 100 μg/ml streptomycin. HepG2-hNTCP-C4 cells were cultured in DMEM medium (Gibco, MA, USA) containing 10% fetal bovine serum and 10 mM HEPES (Gibco)."}, "HCV": {"system": "HCV", "assay": "Antiviral selectivity panel, luciferase in Huh-7 cells", "type": "cell-based", "conditions": "Hepatitis C virus; Huh-7, Luciferase"}, "HBV RNA poly(A) tails [3]": {"system": "HBV RNA poly(A) tails", "assay": "HBV poly(A) tail length and composition (NGS) in HepAD38 cells", "type": "cell-based, hepatitis B virus", "conditions": "HepAD38, 70 nM", "protocol": "RNA metabolism in most eukaryotic mRNAs employs the 3′ deadenylation pathway in which poly(A) tail shortening is often observed prior to mRNA degradation ([38][–][40]). We therefore determined the HBV poly(A) tail length and composition from HepAD38 cells in the presence or absence of AB-452. To amplify the HBV poly(A) tail, G/I (guanosine and inosine nucleotides) tailing was added to the 3′ ends of mRNA transcripts, and the newly added G/I tails were used as the priming sites to synthesize the cDNA that would be used for amplification of HBV poly(A) tails. The lengths and compositions of the amplicons containing the HBV RNA poly(A) tails were analyzed by next-generation sequencing (PacBio Sequel sequencing platform). […] The poly(A) tails amplified from β-actin cDNAs served as the negative control, which was not affected by the treatment (Fig. 3D).\nACTB GSP primers include 5′-[…] -3′ (sense) and 5′-[…] -3′(antisense). Amplified products were used as loading control. […] Accuracy cutoff default was 0.9."}, "HBV [4]": {"system": "HBV", "assay": "Antiviral activity in HBV-infected HepG2-NTCP WT and KO clones", "type": "cell-based, hepatitis B virus", "conditions": "for EC50: Hepatitis B virus, read-out: HBV infection EC50"}, "HBV RNA poly(A) tails [5]": {"system": "HBV RNA poly(A) tails", "conditions": "Huh-7, 100 nM"}}}
{"smiles": "COCCCOc1cc2c(nc1OC)-c1cc(=O)c(C(=O)O)cn1[C@H](C(C)C)C2", "note": "[AB-452]", "values": [{"measurement": "EC50", "setting": "HBV [1]; read-out: HBeAg EC50", "value": "4 ± 2.3", "unit": "nM"}, {"measurement": "EC50", "setting": "HBV [1]; read-out: HBsAg EC50", "value": "6.8 ± 1.8", "unit": "nM"}, {"measurement": "EC50", "setting": "HBV [2]", "value": "2.3 ± 0.36", "unit": "nM"}, {"measurement": "EC50", "setting": "HCV", "value": "> 30000", "unit": "nM"}, {"measurement": "average HBV RNA poly(A) tail length", "setting": "HBV RNA poly(A) tails [3]; 4 h, untreated around 100", "value": 58, "unit": "nucleotides"}, {"measurement": "fraction of poly(A) tails containing internal G", "setting": "HBV RNA poly(A) tails [3]; untreated 64%", "value": 25, "unit": "%"}, {"measurement": "EC50", "setting": "HBV [4]; P5_KO (T3-4)", "value": "37.7 ± 8.3", "unit": "nM"}, {"measurement": "EC50", "setting": "HBV [4]; P5_KO (T3-15)", "value": "39.3 ± 3.2", "unit": "nM"}, {"measurement": "EC50", "setting": "HBV [4]; P7_KO (T2-8)", "value": "3.8 ± 1.5", "unit": "nM"}, {"measurement": "EC50", "setting": "HBV [4]; T222, P7_KO (T2-22)", "value": "3.2 ± 1.9", "unit": "nM"}, {"measurement": "EC50", "setting": "HBV [4]; WT (parent) HepG2-NTCP", "value": "2.7 ± 1.8", "unit": "nM"}, {"measurement": "HBV infection FC vs WT", "setting": "HBV [4]; P5_KO (T3-4)", "value": 14.0}, {"measurement": "HBV infection FC vs WT", "setting": "HBV [4]; P5_KO (T3-15)", "value": 14.6}, {"measurement": "HBV infection FC vs WT", "setting": "HBV [4]; P7_KO (T2-8)", "value": 1.4}, {"measurement": "HBV infection FC vs WT", "setting": "HBV [4]; P7_KO (T2-22)", "value": 1.2}, {"measurement": "HBV infection FC vs WT", "setting": "HBV [4]; WT (parent)", "value": 1}, {"measurement": "poly(A) tail length of H133_dSLα transcripts", "setting": "HBV RNA poly(A) tails [5]; untreated 71", "value": 62, "unit": "nucleotides"}, {"measurement": "average poly(A) tail length of H133 transcripts", "setting": "HBV RNA poly(A) tails [5]; untreated 124", "value": 64, "unit": "nucleotides"}, {"measurement": "overall guanylation frequency, H133", "setting": "HBV RNA poly(A) tails [5]; untreated about 60%", "value": 24, "unit": "%"}]}
